Reference: BindingDB's records for doi:10.1046/j.1471-4159.1996.67010145.x (Mcgill University, 1996)
Values joined by “and” are separate entries in the source; they are usually repeats but may differ in a detail not shown here. Identical values can stand only once.

Biological target: T1, Alpha-bungarotoxin (Bungarus multicinctus, UniProt P60615)
T1 sequence (P60615 whole entry): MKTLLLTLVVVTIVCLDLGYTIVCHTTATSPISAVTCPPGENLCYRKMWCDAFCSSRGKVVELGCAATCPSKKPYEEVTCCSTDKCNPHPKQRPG

Row | SMILES | Ki
1 | C[N+](C)(C)C | 2400 nM
2 | C=C(C=O)C[C@H]1C[C@H](O)[C@]2(C)O[C@@H]3C[C@@H]4O[C@@H]5C[C@]6(C)O[C@]7(C)CC[C@@H]8O[C@@H]9C[C@]%10(C)O[C@@H]%11C(C)=CC(=O)O[C@H]%11C[C@H]%10O[C@H]9C[C@@H](C)[C@H]8O[C@H]7C[C@H]6O[C@@]5(C)C/C=C\[C@H]4O[C@H]3C[C@H]2O1 | 0.35 nM and 0.23 nM
3 | CC[N+](CC)(CC)CC | > 10000 nM
4 | O=c1cccc2n1C[C@H]1CNC[C@H]2C1 [(1S,9R)-7,11-diazatricyclo[7.3.1.0~2,7~]trideca-2,4-dien-6-one] | 1800 nM
5 | C[N+](C)(C)CCOC(N)=O [(2-Hydroxyethyl)trimethyl ammonium chloride carbamate] | 9300 nM
6 | CN1CCC[C@H]1c1cccnc1 [(R,S)-nicotine] | 1700 nM and 900 nM
7 | COc1cc2c3cc1Oc1cc(ccc1O)C[C@H]1c4c(cc(OC)c(O)c4Oc4ccc(cc4)C[C@@H]3N(C)CC2)CC[N+]1(C)C [CAS_57-94-3] | 5600 nM
8 | C[N+]1(C)CCN(c2ccccc2)CC1 [DMPP] | 670 nM
9 | CCN1C[C@]2(COC(=O)c3ccccc3-n3c(O)cc(C)c3O)CC[C@H](OC)[C@]34C5C[C@@H]6[C@@H](OC)C[C@@](O)(C5[C@H]6OC)[C@@](O)(C13)[C@@H](OC)C24 (stereo partly drawn) [[(1S,4S,5R,6S,8R,9R,13S,16S,18S)-11-ethyl-8,9-dihydroxy-4,6,16,18-tetramethoxy-11-azahexacyclo[7.7.2.1^{2,5}.0^{1,10}.0^{3,8}.0^{13,17}]nonadecan-13-yl]methyl 2-[(3S)-3-methyl-2,5-dioxopyrrolidin-1-yl]benzoate] | 7.9 nM and 3.1 nM
